We go through 28 compounds from US7786152B2, “Compound” (priority 2002, dated 2010).

The target of the experiment is T1, 11 β-HSD type 1 (Rattus norvegicus, UniProt P16232).
T1 construct: Both the kidneys and livers were homogenised on ice in PBS-sucrose buffer; tissue Harlan Olac (rats); host or cells: Wistar rat liver homogenate supernatant
Nature of the experiment: 11 β-HSD type 1 inhibition, rat liver homogenate, conversion E to F (radiometric TLC). Format: biochemical. As to conditions: for inhibition at 10 µM: read-out: % inhibition of 11β HSD1 @ 10 μM, 10 μM, typical sd ± 5%, means n=2; for IC50: dose-response 1, 5, 10 and 20 μM, read-out: IC50 (11β HSD1). The procedure:
Enzymes—Rat livers and rat kidneys were obtained from normal Wistar rats (Harlan Olac, Bicester, Oxon, UK). Both the kidneys and livers were homogenised on ice in PBS-sucrose buffer (1 g/10 ml) using an Ultra-Turrax. After the livers and kidneys were homogenised the homogenate was centrifuged for five minutes at 4000 rpm. The supernatant obtained was removed and stored in glass vials at −20° C. The amount of protein per μl of rat liver and kidney cytosol was determined using the Bradford method.
11 β-HSD type 1 is the enzyme responsible for the conversion E to F and this type of enzyme is present in rat liver. The substrate solution used in this assay contained 70,000 cpm/ml ^3H-E in PBS-sucrose and 0.5 μM of unlabelled E and co-factor NADPH (9 mg/10 ml of substrate solution). 1 ml of the substrate solution and the different amounts of rat liver homogenate was added to all tubes.
The amount of rat liver homogenate needed for an assay was determined by incubating the substrate solution with 25, 50, 100 and 150 μl for 30, 60, 90 and 120 minutes at 37° C. in a water bath with the tubes being mechanically shaken. After the incubation 50 μL of recovery solution was added, containing about 8,000 cpm/50 μL of ^14C—F and 50 μg/50 μL of unlabelled F for visualising the spot on the TLC-plate, to correct for the losses made in the next two steps. F was then extracted from the aqueous phase with 4 ml of ether (2×30 sec cycle, vortex mix). The aqueous phase was then frozen using dry-ice and the organic layer was decanted and poured into smaller tubes and evaporated. 6 drops of ether were then added to the small tubes to re-dissolve the residue which was transferred to an aluminium thin layer chromatography plate (TLC-plate). The TLC-plate was developed in a TLC tank under saturated conditions. The solvent system used was chloroform:methanol 9:1 (v/v). The F spots on the TLC-plate were visualised under UV-light and cut out from the TLC-plate (Rf=0.45). The spots from the TLC-plate were then put into scintillation vials and 0.5 ml of methanol was added to all vials to elute the radioactivity from the TLC-plate for 5 minutes. 10 ml of Ecoscint was added to the scintillation vials and they were put into the scintillation counter to count amount of product formed.
In these assays the influence of different inhibitors on the 11 β-HSD activity both in reductive (type 1) and oxidative (type 2) directions were assessed. In the reductive direction E is the substrate and F the product and visa versa in the case of oxidation. The method described here is for the oxidative direction.
The substrate solution contained about 50,000 cpm/ml ^3H—F in PBS-sucrose and 0.5 μM F. 1 ml of the substrate solution was added to each tube, the inhibitors were also added, at a 10 μM concentration, to each tube except to the “control” and “blank” tubes. 150 μL was added to all tubes except to the blanks, this was done to correct for the amount of ^3H—F spontaneously formed. The tubes were incubated for 60 minutes in a mechanically shaken water bath at 37° C. The amount of kidney liver homogenate and incubation time used resulted from the enzyme- and time-dependency assay. After incubation 50 μL of recovery was added to correct for the losses made in the next steps, containing 5000 cpm/50 μL of ^14C-E and 50 μg/50 μL of unlabelled E (to visualise the spot on the TLC-plate). The aqueous mixture was then extracted with 4 ml of ether (2×30 sec cycle, vortex mix). After freezing the aqueous phase, the ether (upper) layer was decanted into smaller tubes and evaporated at 45° C. until completely dry. The residue was then re-dissolved in 6 drops of ether and transferred to a TLC-plate. The TLC-plate was developed in chloroform:methanol (9:1 v/v) solvent system, the TLC-plate ran for about 90 minutes until the solvent front had moved about 18 cm. The position of the product E was visualised under UV-light and cut out from the TLC-plate and put into scintillation vials. […]

T1 sequence (P16232 whole entry): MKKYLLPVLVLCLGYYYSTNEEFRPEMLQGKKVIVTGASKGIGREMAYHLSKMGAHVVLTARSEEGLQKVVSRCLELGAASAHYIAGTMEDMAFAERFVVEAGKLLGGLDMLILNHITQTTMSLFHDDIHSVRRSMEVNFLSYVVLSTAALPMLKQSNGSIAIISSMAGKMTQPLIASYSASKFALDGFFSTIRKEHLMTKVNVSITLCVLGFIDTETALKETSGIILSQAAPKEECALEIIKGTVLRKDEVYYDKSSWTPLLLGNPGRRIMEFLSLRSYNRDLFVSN

By inhibition is commonly meant the relative decrease from the control value, in per cent. On to `Cc1nc2cc(NS(=O)(=O)c3ccc(Cl)cc3Cl)ccc2s1` [compound 412], for which the inhibition at 10 µM came to 27%.
Broadly, the IC50 is the concentration at which inhibition is half-maximal. With `Cc1nc2cc(NS(=O)(=O)c3cccc(Cl)c3C)ccc2s1` [compound 413], the IC50 is 6.6 µM and the inhibition at 10 µM came to 53%.
As to `CCCc1ccc(S(=O)(=O)Nc2ccc3sc(C)nc3c2)cc1` [compound 421], the IC50 turned out to be 10 µM and the inhibition at 10 µM turned out to be 60%.
Turning to `COc1ccc(S(=O)(=O)Nc2ccc3sc(C)nc3c2)cc1` [compound 424], the inhibition at 10 µM is 24%.
Still for that read-out and setting: for `Cc1nc2cc(NS(=O)(=O)c3c(C)cccc3Cl)ccc2s1` [compound 425] the value was 40%; for `Cc1nc2cc(N(C)S(=O)(=O)c3cccc(Cl)c3C)ccc2s1` [compound 469], 63%.
Consider `CCN(c1ccc2sc(C)nc2c1)S(=O)(=O)c1cccc(Cl)c1C` [compound 470], for which the inhibition at 10 µM was 39%.
Consider `Cc1nc2cc(NS(=O)(=O)c3ccc(Br)cc3)ccc2s1` [compound 519], for which the inhibition at 10 µM is 48%.
For the compound `Cc1nc2cc(NS(=O)(=O)c3ccc(-c4ccccc4)cc3)ccc2s1` [compound 521], the inhibition at 10 µM is 0.5%.
For the compound `Cc1nc2cc(NS(=O)(=O)c3c(Cl)cc(Cl)cc3Cl)ccc2s1` [compound 522], the inhibition at 10 µM turned out to be 37%.
As to `Cc1nc2cc(NS(=O)(=O)c3ccc(Br)cc3C)ccc2s1` [compound 523], the inhibition at 10 µM stood at 21%.
For `Cc1nc2cc(NS(=O)(=O)c3cccc4cccnc34)ccc2s1` [compound 552], the inhibition at 10 µM came to 18%.
Turning to `Cc1nc2cc(NS(=O)(=O)c3cccc4ccccc34)ccc2s1` [compound 553], the inhibition at 10 µM was 0.7%.
On the same count and under the same terms, for `Cc1nc2cc(NS(=O)(=O)c3cccc4c(N(C)C)cccc34)ccc2s1` [compound 554] the value was 69%; for `Cc1nc2cc(NS(=O)(=O)c3cc(Cl)ccc3Cl)ccc2s1` [compound 580], 75%.
With `Cc1nc2cc(NS(=O)(=O)c3ccc4c(c3)CN(C(=O)C(F)(F)F)CC4)ccc2s1` [compound 581], the inhibition at 10 µM was found to be 77%.
For the compound `COc1ccc(Cl)cc1S(=O)(=O)Nc1ccc2sc(C)nc2c1` [compound 582], the inhibition at 10 µM is 40%.
Take `Cc1nc2cc(NS(=O)(=O)c3ccccc3C#N)ccc2s1` [compound 583]: the inhibition at 10 µM is 29%.
Consider `COc1cc(C)ccc1S(=O)(=O)Nc1ccc2sc(C)nc2c1` [compound 584], for which the inhibition at 10 µM is 48%.
For the compound `Cc1nc2cc(NS(=O)(=O)c3ccc(Oc4ccccc4)cc3)ccc2s1` [compound 585], the inhibition at 10 µM is 48%.
Take `CC(=O)c1ccccc1S(=O)(=O)Nc1ccc2sc(C)nc2c1` [compound 701]: the inhibition at 10 µM is 34%.
With `Cc1nc2cc(NS(=O)(=O)c3c(C(C)C)cc(C(C)C)cc3C(C)C)ccc2s1` [compound 703], the inhibition at 10 µM came to 35%.
Regarding `Cc1nc2cc(NS(=O)(=O)c3ccc(C(C)C)cc3)ccc2s1` [compound 704], the inhibition at 10 µM came to 38%.
On to `COC(=O)c1ccccc1S(=O)(=O)Nc1ccc2sc(C)nc2c1` [compound 705], for which the inhibition at 10 µM came out at 6%.
For the compound `COc1c(C)c(C)c(S(=O)(=O)Nc2ccc3sc(C)nc3c2)c(C)c1C` [compound 708], the inhibition at 10 µM is 39%.
With `Cc1nc2cc(NS(=O)(=O)c3ccc(C(C)(C)C)cc3)ccc2s1` [compound 709], the inhibition at 10 µM came out at 10%.
Regarding `Cc1nc2cc(NS(=O)(=O)c3c(C)c(C)c(C)c(C)c3C)ccc2s1` [compound 710], the inhibition at 10 µM came to 55%.
`CCSc1nc2ccc(NS(=O)(=O)c3cccc(Cl)c3C)cc2s1` [compound 751]: the inhibition at 10 µM was determined as 10%.
